In the NIST ThermoML archive (doi:10.1016/j.tca.2014.04.012):
Numbers after ± are expanded uncertainties.

Conditions: Crystal; visual observation

Row | Structure (SMILES) | Normal melting temperature [°C]
1 | CN1C(=O)N(C)C2NC(=O)NC21 (configuration not stated) | 260.00 ± 2
2 | CCN1C(=O)N(CC)C2NC(=O)NC21 (configuration not stated) | 310.00 ± 2
